This is an account of results in patent US20230192618A1, “CRYSTALLINE SALT FORMS OF N-(4-(4-(CYCLOPROPYLMETHYL)PIPERAZINE-1-CARBONYL)PHENYL)QUINOLINE-8-SULFONAMIDE” (Agios Pharmaceuticals, Inc., priority 2019, published 2023).

Series [1] is described as follows: Crystalline stability by XRPD after 7 days at 40° C./75% RH. The format is physicochemical. Particulars: for Crystalline Stability (XRPD pattern): after 7 days at 40° C./75% RH. The text has this:
(§1) The Rigaku Smart-Lab X-ray diffraction system was configured for reflection Bragg- Brentano geometry using a line source X-ray beam. The x-ray source was a Cu Long Fine Focus tube that was operated at 40 kV and 44 ma. That source provided an incident beam profile at the sample that changes from a narrow line at high angles to a broad rectangle at low angles. Beam conditioning slits were used on the line X-ray source to ensure that the maximum beam size was less than 10 mm both along the line and normal to the line. The Bragg-Brentano geometry was a para-focusing geometry controlled by passive divergence and receiving slits with the sample itself acting as the focusing component for the optics. The inherent resolution of Bragg-Brentano geometry was governed in part by the diffractometer radius and the width of the receiving slit used. Typically, the Rigaku Smart-Lab was operated to give peak widths of 0.1 °2θ or less. The axial divergence of the X-ray beam was controlled by 5.0-degree Soller slits in both the incident and diffracted beam paths.
(§2) Powder samples were prepared in a low background Si holder using light manual pressure to keep the sample surfaces flat and level with the reference surface of the sample holder. Each sample was analyzed from 2 to 40 °2θ using a continuous scan of 6 °2θ per minute with an effective step size of 0.02 °2θ.
(§3) The chemical purity analyzed by HPLC and crystalline stability by XRPD for each of the crystalline salt Forms A to M prepared according to the procedures described in Examples 1-13 are summarized in Table 14. In short, these salt forms all yielded a chemical purity higher than 99%.

A short description of series [2]: Crystalline stability by XRPD after heating (removal of volatiles). It is filed as physicochemical.
Excerpt: as §1, §2, §3

As for `O=C(c1ccc(NS(=O)(=O)c2cccc3cccnc23)cc1)N1CCN(CC2CC2)CC1` [Form J], the entries for the “Crystalline Stability (XRPD pattern)” value in series [1] (listed as Crystalline Phosphate Salt Form J) and in series [2] (after heating to 175° C. (removal of volatiles)) were “additional peaks in XRPD pattern” and “no change in XRPD pattern”, respectively.

On to `O=C(c1ccc(NS(=O)(=O)c2cccc3cccnc23)cc1)N1CCN(CC2CC2)CC1` [Form B], for which the “Crystalline Stability (XRPD pattern)” value in series [1] (listed as Crystalline Fumarate Salt Form B) and in series [2] (after heating to 120° C. (removal of volatiles)) was “no change in XRPD pattern after 7 days at 40° C./75% RH or after heating to 120 °C (removal of volatiles)” in each case. For `O=C(c1ccc(NS(=O)(=O)c2cccc3cccnc23)cc1)N1CCN(CC2CC2)CC1` [Form G], the “Crystalline Stability (XRPD pattern)” value in series [1] (listed as Crystalline Hydrochloride Salt Form G) is reported as “unique XRPD pattern after 7 days at 40° C./75% RH”. In the case of `O=C(c1ccc(NS(=O)(=O)c2cccc3cccnc23)cc1)N1CCN(CC2CC2)CC1` [Form D], in series [1] (listed as Crystalline Gentisate Salt Form D), the “Crystalline Stability (XRPD pattern)” value is given as “no change in XRPD pattern after 7 days at 40° C./75% RH”. In the case of `O=C(c1ccc(NS(=O)(=O)c2cccc3cccnc23)cc1)N1CCN(CC2CC2)CC1` [Form K], in series [1] (listed as Crystalline Phosphate Salt Form K), the “Crystalline Stability (XRPD pattern)” value was “no change in XRPD pattern after 7 days at 40° C./75% RH”.

On to `O=C(c1ccc(NS(=O)(=O)c2cccc3cccnc23)cc1)N1CCN(CC2CC2)CC1` [Form H], for which the “Crystalline Stability (XRPD pattern)” value in series [1] (listed as Crystalline Maleate Salt Form H) is listed as “no change in XRPD pattern after 7 days at 40° C./75% RH”. With `O=C(c1ccc(NS(=O)(=O)c2cccc3cccnc23)cc1)N1CCN(CC2CC2)CC1` [Form A], the “crystalline stability by XRPD” value in series [1] (7 days at elevated temperature and relative humidity (e.g., 40° C./75% RH)) is listed as “maintained their original forms”. For the same compound, the “Crystalline Stability (XRPD pattern)” value in series [1] (listed as Crystalline Besylate Salt FormA) was “no change in XRPD pattern after 7 days at 40° C./75% RH”.

As for `O=C(c1ccc(NS(=O)(=O)c2cccc3cccnc23)cc1)N1CCN(CC2CC2)CC1` [Form L], the results for the “Crystalline Stability (XRPD pattern)” value in series [1] (listed as Crystalline Tartrate Salt Form L) and in series [2] (after heating to 150° C. (removal of volatiles)) were “unique XRPD pattern” and “becomes non-crystalline”, respectively. As to `O=C(c1ccc(NS(=O)(=O)c2cccc3cccnc23)cc1)N1CCN(CC2CC2)CC1` [Form F], the “Crystalline Stability (XRPD pattern)” value in series [1] (listed as Crystalline Hydrochloride Salt Form F) and in series [2] (after heating to 130° C. (removal of volatiles)) was “no change in XRPD pattern after 7 days at 40° C./75% RH or after heating to 130 °C (removal of volatiles)” in each case. Turning to `O=C(c1ccc(NS(=O)(=O)c2cccc3cccnc23)cc1)N1CCN(CC2CC2)CC1` [Form M], the “Crystalline Stability (XRPD pattern)” value in series [1] (listed as Crystalline Tosylate Salt Form M) is “no change in XRPD pattern after 7 days at 40° C./75% RH”. With `O=C(c1ccc(NS(=O)(=O)c2cccc3cccnc23)cc1)N1CCN(CC2CC2)CC1` [Form E], the “Crystalline Stability (XRPD pattern)” value in series [1] (listed as Crystalline Gentisate Salt Form E) was “significant changes in XRPD pattern after 7 days at 40° C./75% RH”. As to `O=C(c1ccc(NS(=O)(=O)c2cccc3cccnc23)cc1)N1CCN(CC2CC2)CC1` [Form I], in series [1] (listed as Crystalline Malonate Salt Form I), the “Crystalline Stability (XRPD pattern)” value is “no change in XRPD pattern after 7 days at 40° C./75% RH”. On to `O=C(c1ccc(NS(=O)(=O)c2cccc3cccnc23)cc1)N1CCN(CC2CC2)CC1` [Form C], for which the “Crystalline Stability (XRPD pattern)” value in series [1] (listed as Crystalline Fumarate Salt Form C) is recorded as “no change in XRPD pattern after 7 days at 40° C./75% RH”.
